Measured values as given in patent publication US20260207768A1, “NOVEL LINKER DRUGS COMPRISING PHOSPHOANTIGENS, NOVEL CONJUGATES AND THEIR USE IN THERAPY” (priority 2022, published 2026).

What was measured:
NK-cells = settings: shown in WO2023/275025; cited from earlier work
[1] = tested on: CD20-positive Burkitt's Lymphoma human tumor cell line Raji; assay: Cellular binding to Raji cells (flow cytometry, MFI); settings: 30 minutes at 4° C.
Protocol: The CD20-positive Burkitt's Lymphoma human tumor cell line Raji (DSMZ, the German collection of Microorganisms and cell cultures GmbH) was used for in vitro experiments. Raji cells were cultured in complete growth medium (CGM): RPMI-1640 (Lonza) supplemented with 10% Heat-inactivated (HI) Fetal Bovine Serum (FBS) (Gibco) and 80 U/mL Penicillin-Streptomycin solution (Lonza). Raji cells were maintained at 37° C. in a humidified incubator containing 5% CO2 and sub-cultured twice a week. […] Fluorescence intensities were determined by flow cytometry using the NovoCyte (Agilent) and determined as the median fluorescence intensity (MFI). […] EC50 values were calculated in GraphPad Prism as the concentration in μg/mL that gives a response halfway between bottom and top of the curve. […]
These ADCs were tested for their ability to bind Raji cells (using a binding assay, as described in Example 5) and to activate Vdelta2 gammadelta T-cells after overnight incubation with CD20-positive Raji cells. The pretreated Raji cells were cocultured with peripheral blood mononuclear cells (PBMCs) and activation (IFNγ production) and degranulation (CD107a) of Vdelta2 gammadelta T-cells and NK-cells was determined using multicolor flow cytometry, as described for the Functional assay in Example 5.

[2] = tested on: Vdelta2 gammadelta T-cells; assay: Functional assay: Vdelta2 gammadelta T-cell activation (CD107a, IFNγ) after co-culture of PBMCs with pretreated Raji cells; type: cell-based, human; design: key to IFNγ production by Vdelta2 populations, EC50: †: incomplete curve saturation (no EC50 calculation possible); ††: low number of IFNγ-positive cells, no reliable EC50 calculation possible; settings: Donor two; Raji cells pre-treated overnight, 6 hours coculture with PBMCs
Protocol: Multiple synthesized linker drug compounds were conjugated to rituximab (anti-CD20) and resulting ADCs were tested for their ability to bind Raji cells and to activate Vdelta2 gammadelta T-cells after overnight incubation with CD20-positive Raji cells. The linker drug compounds that were conjugated to rituximab, and resulting ADCs, are within the list reflected in Table 1. The pretreated Raji cells were cocultured with peripheral blood mononuclear cells (PBMCs) and activation (IFNγ production) and degranulation (CD107a) of Vdelta2 gammadelta T-cells and NK-cells was determined using multicolor flow cytometry.
For stimulation with ADCs according to the invention, Raji cells were harvested, diluted to a concentration of 5×10^6 cells/mL and 50 μL (equivalent to 250,000 cells/well) of this cell suspension was seeded into a 96-well plate. […] The recovered PBMCs were harvested, counted and diluted to a concentration of 10×10^6 cells/mL in CGM, and 50 μL/well (equivalent to 0.5×10^6 cells/well) was added to the Raji cells. […]

Rituximab: anti-CD20 antibody rituximab [reference compound]
Activation of NK-cells (in words) (NK-cells): induced activation of NK-cells
EC50 binding to Raji cells [1]: 3.30 µg/mL
CD107a production by Vdelta2 populations, EC50 [2]: 0.094 µg/mL
IFNγ production by Vdelta2 populations, EC50 [2]: ††
